In US11945812B2, “Annulated 2-amino-3-cyano thiophenes and derivatives for the treatment of cancer” (Boehringer Ingelheim International GmbH, priority 2020, dated 2024):
Like-named read-outs stand apart in the source and are kept apart here.

Columns and labels:
Type in all cases: cell-based
[1] = tested on: ERK phosphorylation in NCI-H358_Cas9_SOS2; assay: ERK phosphorylation assay 2 (AlphaLISA SureFire Ultra p-ERK1/2), SOS2 knock-out; conditions: Homo sapiens, NCI-H358; assay 2 (marked with *); read-out: IC50 H358 pERK
Excerpt: ERK Phosphorylation Assay
Materials Used for the Assay;

[2] = target: Ba/F3 cells bearing a KRAS G12C mutation (Homo sapiens, UniProt P01116, G12C, cells depend on it); assay: Ba/F3 cell model proliferation assay (AlamarBlue, 72 h)
Protocol: Ba/F3 Cell Model Generation and Proliferation Assay
Plasmids containing KRASG12 mutants were obtained from GeneScript. To generate KRASG12-dependent Ba/F3 models, Ba/F3 cells were transduced with retroviruses containing vectors that harbor KRASG12 isoforms. Platinum-E cells (Cell Biolabs) were used for retrovirus packaging. Retrovirus was added to Ba/F3 cells. To ensure infection, 4 μg/mL polybrene was added and cells were spinfected. […] Cells with an infection efficiency of 10% to 20% were further cultivated and puromycin selection with 1 μg/mL was initiated. As a control, parental Ba/F3 cells were used to show selection status. Selection was considered successful when parental Ba/F3 cells cultures died. To evaluate the transforming potential of KRASG12 mutations, the growth medium was no longer supplemented with IL-3. Ba/F3 cells harboring the empty vector were used as a control. Approximately ten days before conducting the experiments, puromycin was left out.
All treatments were performed in technical duplicates. The assay is run using a fully automated robotic system. Treated cells were incubated for 72 h at 37° C. with 5% CO2. AlamarBlue™ (ThermoFisher), a viability stain, was added and fluorescence measured in the PerkinElmer Envision HTS Multilabel Reader.

MiaPaCa-2 cells = assay: MiaPaCa-2 CTG proliferation assay (pancreatic cancer); conditions: Homo sapiens, MIA PaCa-2, 120 h; MiaPaCa-2 CTG proliferation, 5 days; read-out: IC50 MiaPACA2
Protocol: MiaPaCa-2 CTG Proliferation Assay (Pancreatic Cancer)
MiaPaCa-2 cells (ATCC® CRM-CRL-1420™) were grown in cell culture flasks (175 cm^2) using DMEM medium supplemented with 10% fetal bovine serum. […] Materials used for the assay were CulturPlate-384, White Opaque 384-well microplate, Sterile and Tissue Culture Treated (Perkin Elmer #6007680), DMEM medium and FBS # SH30071.03 (HyClone).
The proliferation assays started (day1) with seeding cells in flat bottom 384 well microtiter plates in 90 μL DMEM medium supplemented with 10% FBS at a density of 500 cells/well. Any other luminescence compatible plate format is possible. On day 2, 10 μL dilutions of the test compounds covering a concentration range between app. 0, 1 and 10.000 nM were added to the cells. Cells were incubated for 5 days in a humidified, incubator with 5% CO2 at 37° C. On day 7 100 μl of Cell Titer Glow reagent (Cell titer Glo Luminescent Cat. No. G7571, Promega) were added to each well and incubated for additional 10 min at room temperature (with agitation). Luminescence was measured on a Wallac Victor using standard luminescence read out. IC50 values were calculated using standard Levenburg Marquard algorithms (GraphPad Prism).

[3] = Ba/F3 KRAS G12C cells, 72 h, 10% FCS, uncorrected, read-out: IC50 Ba/F3 KRASG12C
[4] = corrected by plasma protein binding in 10% FCS (fraction unbound), read-out: IC50 Ba/F3 KRASG12C (corrected)

Chain of Ba/F3 cells bearing a KRAS G12C mutation (P01116 whole entry G12C): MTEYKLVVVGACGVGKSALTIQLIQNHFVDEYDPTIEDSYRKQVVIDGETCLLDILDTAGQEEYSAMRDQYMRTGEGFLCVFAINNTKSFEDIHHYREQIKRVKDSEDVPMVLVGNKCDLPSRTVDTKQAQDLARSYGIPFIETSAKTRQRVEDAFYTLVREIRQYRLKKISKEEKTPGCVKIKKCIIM

Question: With `C=CC(=O)N1CCN(c2cc(O[C@@H](C)[C@@H]3CCCN3C)nc(-c3cc([C@@]4(C)CCCc5sc(N)c(C#N)c54)on3)n2)[C@H](C)C1` [Ib-1] as the compound, how does the IC50 [1] read?
Answer: Its IC50 is 1.7 nM.

Question: What about the GI50 [2, 3] of the same compound?
Answer: Its GI50 is 1.8 nM.

Question: What about the GI50 [2, 4] of the same compound?
Answer: The GI50 was 0.14 nM.

Question: And the IC50 (MiaPaCa-2 cells)?
Answer: The IC50 was 22.6 nM.

Question: Which IC50 [1] does the source give for `C=CC(=O)N1[C@@H](C)CN(c2cc(O[C@@H](C)[C@@H]3CCCN3C)nc(-c3cc([C@@]4(C)CCCc5sc(N)c(C#N)c54)on3)n2)C[C@@H]1C` [Ib-4] here?
Answer: Its IC50 is 2.4 nM.

Question: And the GI50 [2, 3]?
Answer: Its GI50 is 1.7 nM.

Question: And the GI50 [2, 4]?
Answer: The GI50 was 0.09 nM.

Question: And the IC50 (MiaPaCa-2 cells)?
Answer: The IC50 was 20.1 nM.

Question: With `C=CC(=O)N1CCN(c2cc(O[C@@H](C)[C@@H]3CCCN3C)nc(-c3cc([C@@]4(C)CCCc5sc(N)c(C#N)c54)on3)n2)CC12CC2` [Ib-5] as the compound, how does the IC50 [1] read?
Answer: The IC50 was 6.7 nM.

Question: What about the GI50 [2, 3] of the same compound?
Answer: The GI50 was 3.8 nM.

Question: What about the GI50 [2, 4] of the same compound?
Answer: The GI50 was 0.22 nM.

Question: And the IC50 (MiaPaCa-2 cells)?
Answer: Its IC50 is 28 nM.

Question: With `C=CC(=O)N1CCN(c2cc(O[C@@H](C)[C@@H]3CCCN3C)nc(-c3cc(C4(C)CCCc5sc(N)c(C#N)c54)on3)n2)CC1` (stereo partly drawn) [Ib-6] as the compound, how does the IC50 [1] read?
Answer: The IC50 was 2 nM.

Question: What about the GI50 [2, 3] of the same compound?
Answer: The GI50 was 1.6 nM.

Question: And the GI50 [2, 4]?
Answer: Its GI50 is 0.27 nM.

Question: And the IC50 (MiaPaCa-2 cells)?
Answer: Its IC50 is 9 nM.

Question: `C=C(F)C(=O)N1CCN(c2cc(O[C@@H](C)[C@@H]3CCCN3C)nc(-c3cc([C@@]4(C)CCCc5sc(N)c(C#N)c54)on3)n2)[C@H](C)C1` [Ib-10] was tested. Which IC50 [1] did it give?
Answer: Its IC50 is 32.8 nM.

Question: What about the GI50 [2, 3] of the same compound?
Answer: Its GI50 is 13.1 nM.

Question: What about the GI50 [2, 4] of the same compound?
Answer: The GI50 was 0.83 nM.

Question: And the IC50 (MiaPaCa-2 cells)?
Answer: The IC50 was 56.8 nM.

Question: With `C=C(F)C(=O)N1[C@@H](C)CN(c2cc(O[C@@H](C)[C@@H]3CCCN3C)nc(-c3cc([C@@]4(C)CCCc5sc(N)c(C#N)c54)on3)n2)C[C@@H]1C` [Ib-11] as the compound, how does the IC50 [1] read?
Answer: Its IC50 is 44.4 nM.

Question: What about the GI50 [2, 3] of the same compound?
Answer: Its GI50 is 12.6 nM.

Question: And the GI50 [2, 4]?
Answer: The GI50 was 0.57 nM.

Question: What about the IC50 (MiaPaCa-2 cells) of the same compound?
Answer: Its IC50 is 105 nM.

Question: What does the source list for `COC/C=C/C(=O)N1CCN(c2cc(O[C@@H](C)[C@@H]3CCCN3C)nc(-c3cc([C@@]4(C)CCCc5sc(N)c(C#N)c54)on3)n2)[C@H](C)C1` [Ib-14]?
Answer: IC50 [1]: 12.6 nM; GI50 [2, 3]: 16 nM; GI50 [2, 4]: 1.06 nM; IC50 (MiaPaCa-2 cells): 36 nM

Question: With `C=CC(=O)N1CCN(c2cc(O[C@@H](C)[C@@H]3CCCN3C)nc(-c3cc([C@@]4(C)CCCc5sc(N)c(C#N)c54)no3)n2)CC12CC2` [Ic-3] as the compound, how does the IC50 [1] read?
Answer: Its IC50 is 12.3 nM.

Question: What about the GI50 [2, 3] of the same compound?
Answer: The GI50 was 5.5 nM.

Question: What about the GI50 [2, 4] of the same compound?
Answer: The GI50 was 0.6 nM.

Question: And the IC50 (MiaPaCa-2 cells)?
Answer: The IC50 was 123 nM.

Question: Which results are given for `C=CC(=O)N1[C@@H](C)CN(c2cc(O[C@@H](C)[C@@H]3CCCN3C)nc(-c3cc([C@@]4(C)CCCc5sc(N)c(C#N)c54)no3)n2)C[C@@H]1C` [Ic-4]?
Answer: IC50 [1]: 3.4 nM; GI50 [2, 3]: 1.8 nM; GI50 [2, 4]: 0.15 nM; IC50 (MiaPaCa-2 cells): 6.87 nM

Question: `C=CC(=O)N1[C@H](C)CN(c2cc(O[C@@H](C)[C@@H]3CCCN3C)nc(-c3cc([C@@]4(C)CCCc5sc(N)c(C#N)c54)no3)n2)C[C@@H]1C` [Ic-5] was tested. Which IC50 [1] did it give?
Answer: The IC50 was 13.1 nM.

Question: What about the GI50 [2, 3] of the same compound?
Answer: The GI50 was 6.7 nM.

Question: What about the GI50 [2, 4] of the same compound?
Answer: The GI50 was 0.99 nM.

Question: And the IC50 (MiaPaCa-2 cells)?
Answer: The IC50 was 47.9 nM.

Question: How did the IC50 [1] turn out when `C=CC(=O)N1CCC(Oc2cc(N3CCN(C)C[C@@H]3C)nc(-c3cc(C4(C)CCCc5sc(N)c(C#N)c54)no3)n2)CC1` (stereo partly drawn) [Ic-7] was run?
Answer: The IC50 was 56.8 nM.

Question: And the GI50 [2, 3]?
Answer: The GI50 was 35.3 nM.

Question: And the GI50 [2, 4]?
Answer: The GI50 was 8.9 nM.

Question: What about the IC50 (MiaPaCa-2 cells) of the same compound?
Answer: The IC50 was 332 nM.

Question: For `C=C(F)C(=O)N1[C@@H](C)CN(c2cc(O[C@@H](C)[C@@H]3CCCN3C)nc(-c3cc([C@@]4(C)CCCc5sc(N)c(C#N)c54)no3)n2)C[C@@H]1C` [Ic-8], which IC50 [1] is on record?
Answer: Its IC50 is 134 nM.

Question: What about the GI50 [2, 3] of the same compound?
Answer: The GI50 was 35.6 nM.

Question: What about the GI50 [2, 4] of the same compound?
Answer: The GI50 was 2.78 nM.

Question: What about the IC50 (MiaPaCa-2 cells) of the same compound?
Answer: Its IC50 is 396 nM.

Question: What does the source list for `COC/C=C/C(=O)N1CCN(c2cc(O[C@@H](C)[C@@H]3CCCN3C)nc(-c3cc(C4(C)CCCc5sc(N)c(C#N)c54)no3)n2)CC1` (stereo partly drawn) [Ic-9]?
Answer: IC50 [1]: 46.2 nM; GI50 [2, 3]: 87 nM; GI50 [2, 4]: 22.5 nM; IC50 (MiaPaCa-2 cells): 332 nM

Question: For `C=CC(=O)N1CCN(c2cc(O[C@@H](C)[C@@H]3CCCN3C)nc(-c3cc([C@@]4(C)CCCc5sc(N)c(C#N)c54)sn3)n2)CC1` [Id-1], which IC50 [1] is on record?
Answer: Its IC50 is 0.7 nM.

Question: What about the GI50 [2, 3] of the same compound?
Answer: The GI50 was 0.4 nM.

Question: What about the GI50 [2, 4] of the same compound?
Answer: The GI50 was 0.19 nM.

Question: And the IC50 (MiaPaCa-2 cells)?
Answer: Its IC50 is 2.25 nM.

Question: Which results are given for `C=CC(=O)N1[C@H](C)CN(c2cc(O[C@@H](C)[C@@H]3CCCN3C)nc(-c3cc([C@@]4(C)CCCc5sc(N)c(C#N)c54)sn3)n2)C[C@@H]1C` [Id-2]?
Answer: IC50 [1]: 5.4 nM; GI50 [2, 3]: 2 nM; GI50 [2, 4]: 0.87 nM; IC50 (MiaPaCa-2 cells): 21.3 nM

Question: Which IC50 [1] does the source give for `C=CC(=O)N1[C@@H](C)CN(c2cc(O[C@@H](C)[C@@H]3CCCN3C)nc(-c3cc([C@@]4(C)CCCc5sc(N)c(C#N)c54)sn3)n2)C[C@@H]1C` [Id-4] here?
Answer: The IC50 was 2.2 nM.

Question: And the GI50 [2, 3]?
Answer: The GI50 was 1.3 nM.

Question: And the GI50 [2, 4]?
Answer: The GI50 was 0.48 nM.

Question: What about the IC50 (MiaPaCa-2 cells) of the same compound?
Answer: The IC50 was 15.3 nM.

Question: For `C=CC(=O)N1CCN(c2cc(O[C@@H](C)[C@@H]3CCCN3C)nc(-c3cc([C@@]4(C)CCCc5sc(N)c(C#N)c54)sn3)n2)CC12CC2` [Id-5], which IC50 [1] is on record?
Answer: The IC50 was 3.1 nM.

Question: What about the GI50 [2, 3] of the same compound?
Answer: The GI50 was 3.2 nM.

Question: And the GI50 [2, 4]?
Answer: Its GI50 is 1.08 nM.

Question: What about the IC50 (MiaPaCa-2 cells) of the same compound?
Answer: The IC50 was 26.9 nM.

Question: With `C=CC(=O)N1CCC(Oc2cc(O[C@@H](C)[C@@H]3CCCN3C)nc(-c3cc([C@@]4(C)CCCc5sc(N)c(C#N)c54)sn3)n2)CC1` [Id-6] as the compound, how does the IC50 [1] read?
Answer: The IC50 was 1.1 nM.

Question: And the GI50 [2, 3]?
Answer: The GI50 was 0.2 nM.

Question: And the GI50 [2, 4]?
Answer: The GI50 was 0.1 nM.

Question: What about the IC50 (MiaPaCa-2 cells) of the same compound?
Answer: Its IC50 is 13.8 nM.
